Test results from US20250002464A1, “NOVEL COMPOUND AND PHARMACEUTICAL COMPOSITION COMPRISING SAME” (SAPIENSBIO INC., priority 2021, published 2025).

System: α-SMA
Assay: α-SMA expression inhibitory ability in MRC5 cell line (Western blotting)
Type: cell-based
Details: TGF-β1 (10 ng/mL), 72 hours, relative to TGF-β1 only
Description: Subsequently, the inhibitory effect on pulmonary fibrosis of the compounds according to the present invention was overall evaluated. An MRC5 cell line was treated with each compound at 10 μM, and 2 hours later, treated with TGF-β1 (10 ng/mL). After 72 hours, the cells were lysed using RIPA Buffer, and then an α-SMA protein level was measured through Western blotting. The α-SMA expression level when treating the cells with each compound and TGF-β1 compared to the α-SMA expression level when treating the cells only with TGF-β1 without the compound was calculated as the α-SMA expression inhibitory ability of the corresponding compound. The α-SMA expression inhibitory ability of each compound is summarized in Table 2 below (A: inhibitory ability≥70%, B: 50%: inhibitory ability<70%, C: inhibitory ability<50%).

SMILES	inhibition at 10 µM [%]
CC1CCCN1CCC(=O)N1CCN(c2ccc(F)cc2)c2cc(F)ccc21 (stereo in doubt) [Compound 40, (R)-1-(6-fluoro-4-(4-fluorophenyl)-3,4-dihydroquinoxaline-1(2H)-yl)-3-(2-methylpyrrolidin-1-yl)propan-1-one]	< 50
O=C(CCN1CCCC1)N1CCN(c2ccccc2)c2cc(F)ccc21 [Compound 1, 1-(6-fluoro-4-phenyl-3,4-dihydroquinoxaline-1(2H)-yl)-3-(pyrrolidin-1-yl)propan-1-one]	50 to 70
O=C(CCN1CCOCC1)N1CCN(c2ccccc2)c2cc(F)ccc21 [Compound 2, 1-(6-fluoro-4-phenyl-3,4-dihydroquinoxaline-1(2H)-yl)-3-morpholinopropan-1-one]	< 50
O=C(CCN1CCCCC1)N1CCN(c2ccccc2)c2cc(F)ccc21 [Compound 3, 1-(6-fluoro-4-phenyl-3,4-dihydroquinoxaline-1(2H)-yl)-3-(piperidin-1-yl)propan-1-one]	50 to 70
CN1CCN(CCC(=O)N2CCN(c3ccccc3)c3cc(F)ccc32)CC1 [Compound 4, 1-(6-fluoro-4-phenyl-3,4-dihydroquinoxaline-1(2H)-yl)-3-(4-methylpiperazin-1-yl)propan-1-one]	50 to 70
C[C@@H]1CCCN1CCC(=O)N1CCN(c2ccccc2)c2cc(F)ccc21 [Compound 5, (R)-1-(6-fluoro-4-phenyl-3,4-dihydroquinoxaline-1(2H)-yl)-3-(2-methylpyrrolidin-1-yl)propan-1-one]	< 50
C[C@@H]1CCCCN1CCC(=O)N1CCN(c2ccccc2)c2cc(F)ccc21 [Compound 6, (R)-1-(6-fluoro-4-phenyl-3,4-dihydroquinoxaline-1(2H)-yl)-3-(2-methylpiperidin-1-yl)propan-1-one]	50 to 70
CC(C(=O)N1CCN(c2ccccc2)c2cc(F)ccc21)N1CCCC[C@H]1C (stereo partly drawn) [Compound 8, 1-(6-fluoro-4-phenyl-3,4-dihydroquinoxaline-1(2H)-yl)-2-((R)-2-methylpiperidin-1-yl)propan-1-one]	< 50
CC(C(=O)N1CCN(c2ccccc2)c2cc(F)ccc21)N1CCCC1 (stereo not drawn) [Compound 10, 1-(6-fluoro-4-phenyl-3,4-dihydroquinoxaline-1(2H)-yl)-2-(pyrrolidin-1-yl)propan-1-one]	< 50
CC(C(=O)N1CCN(c2ccccc2)c2cc(F)ccc21)N1CCN(C)CC1 (stereo not drawn) [Compound 11, 1-(6-fluoro-4-phenyl-3,4-dihydroquinoxaline-1(2H)-yl)-2-(4-methylpiperazin-1-yl)propan-1-one]	50 to 70
CC(C(=O)N1CCN(c2ccccc2)c2cc(F)ccc21)N1CCC[C@H]1C (stereo partly drawn) [Compound 13]	< 50
O=C(CCN1CCCC1)N1CCN(c2ccc(F)cc2)c2ccccc21 [Compound 14, 1-(4-(4-fluorophenyl)-3,4-dihydroquinoxaline-1(2H)-yl)-3-(pyrrolidin-1-yl)propan-1-one]	≥ 70
O=C(CCN1CCCCC1)N1CCN(c2ccc(F)cc2)c2ccccc21 [Compound 16, 1-(4-(4-fluorophenyl)-3,4-dihydroquinoxaline-1(2H)-yl)-3-(piperidin-1-yl)propan-1-one]	≥ 70
CN1CCN(CCC(=O)N2CCN(c3ccc(F)cc3)c3ccccc32)CC1 [Compound 17, 1-(4-(4-fluorophenyl)-3,4-dihydroquinoxaline-1(2H)-yl)-3-(4-methylpiperazin-1-yl)propan-1-one di-p-toluene sulfonate]	50 to 70
C[C@@H]1CCCCN1CCC(=O)N1CCN(c2ccc(F)cc2)c2ccccc21 [Compound 19, (R)-1-(4-(4-fluorophenyl)-3,4-dihydroquinoxaline-1(2H)-yl)-3-(2-methylpiperidin-1-yl)propan-1-one]	< 50
O=C(CCN1CCN2CCCC2C1)N1CCN(c2ccc(F)cc2)c2ccccc21 (stereo not drawn) [Compound 20, 1-(4-(4-fluorophenyl)-3,4-dihydroquinoxaline-1(2H)-yl)-3-(hexahydropyrrolo[1,2-a]pyrazin-2(1H)-yl)propan-1-one]	50 to 70
O=C(CCNCc1ccccn1)N1CCN(c2ccc(F)cc2)c2ccccc21 [Compound 21, 1-(4-(4-fluorophenyl)-3,4-dihydroquinoxaline-1(2H)-yl)-3-((pyridin-2-ylmethyl)amino)propan-1-one]	50 to 70
O=C(CCN1CC[C@H](O)C1)N1CCN(c2ccc(F)cc2)c2ccccc21 [Compound 23, (S)-1-(4-(4-fluorophenyl)-3,4-dihydroquinoxaline-1(2H)-yl)-3-(3-hydroxypyrrolidin-1-yl)propan-1-one]	≥ 70

SMILES	inhibition at 10 µM [%]
CN1CC[C@@H](NCCC(=O)N2CCN(c3ccc(F)cc3)c3ccccc32)C1 [Compound 26, (R)-1-(4-(4-fluorophenyl)-3,4-dihydroquinoxaline-1(2H)-yl)-3-((1-methylpyrrolidin-3-yl)amino)propan-1-one]	≥ 70
CN1CC[C@H](NCCC(=O)N2CCN(c3ccc(F)cc3)c3ccccc32)C1 [Compound 27, (S)-1-(4-(4-fluorophenyl)-3,4-dihydroquinoxaline-1(2H)-yl)-3-((1-methylpyrrolidin-3-yl)amino)propan-1-one]	≥ 70
O=C(CCN1CCNCC1)N1CCN(c2ccc(F)cc2)c2ccccc21 [Compound 28, 1-(4-(4-fluorophenyl)-3,4-dihydroquinoxaline-1(2H)-yl)-3-(piperazin-1-yl)propan-1-one]	≥ 70
O=C(CCc1cnc[nH]1)N1CCN(c2ccc(F)cc2)c2ccccc21 [Compound 29, 1-(4-(4-fluorophenyl)-3,4-dihydroquinoxaline-1(2H)-yl)-3-(1H-imidazol-5-yl)propan-1-one]	≥ 70
CN1CCN(CCCN2CCN(c3ccc(F)cc3)c3ccccc32)CC1 [Compound 30, 1-(4-fluorophenyl)-4-(3-(4-methylpiperazin-1-yl)propyl)-1,2,3,4-tetrahydroquinoxaline]	≥ 70
CC(C(=O)N1CCN(c2ccc(F)cc2)c2ccccc21)N1CCCC1 (stereo not drawn) [Compound 33, 1-(4-(4-fluorophenyl)-3,4-dihydroquinoxaline-1(2H)-yl)-2-(pyrrolidin-1-yl)propan-1-one]	50 to 70
CC(C(=O)N1CCN(c2ccc(F)cc2)c2ccccc21)N1CCN(C)CC1 (stereo not drawn) [Compound 34, 1-(4-(4-fluorophenyl)-3,4-dihydroquinoxaline-1(2H)-yl)-2-(4-methylpiperazin-1-yl)propan-1-one]	< 50
O=C(CCN1CCCC1)N1CCN(c2ccc(F)cc2)c2cc(F)ccc21 [Compound 36, 1-(6-fluoro-4-(4-fluorophenyl)-3,4-dihydroquinoxaline-1(2H)-yl)-3-(pyrrolidin-1-yl)propan-1-one]	≥ 70
O=C(CCN1CCOCC1)N1CCN(c2ccc(F)cc2)c2cc(F)ccc21 [Compound 37, 1-(6-fluoro-4-(4-fluorophenyl)-3,4-dihydroquinoxaline-1(2H)-yl)-3-morpholinopropan-1-one]	< 50
CN1CCN(CCC(=O)N2CCN(c3ccc(F)cc3)c3cc(F)ccc32)CC1 [Compound 39, 1-(6-fluoro-4-(4-fluorophenyl)-3,4-dihydroquinoxaline-1(2H)-yl)-3-(4-methylpiperazin-1-yl)propan-1-one]	50 to 70
C[C@@H]1CCCCN1CCC(=O)N1CCN(c2ccc(F)cc2)c2cc(F)ccc21 [Compound 41, (R)-1-(6-fluoro-4-(4-fluorophenyl)-3,4-dihydroquinoxaline-1(2H)-yl)-3-(2-methylpiperidin-1-yl)propan-1-one]	< 50
O=C(CCN1CCN2CCCC2C1)N1CCN(c2ccc(F)cc2)c2cc(F)ccc21 (stereo not drawn) [Compound 42, 1-(6-fluoro-4-(4-fluorophenyl)-3,4-dihydroquinoxaline-1(2H)-yl)-3-(hexahydropyrrolo[1,2-a]pyrazin-2(1H)-yl)propan-1-one]	< 50
O=C(CCN1CCN(C2CC2)CC1)N1CCN(c2ccc(F)cc2)c2cc(F)ccc21 [Compound 43, 3-(4-cyclopropylpiperazin-1-yl)-1-(6-fluoro-4-(4-fluorophenyl)-3,4-dihydroquinoxaline-1(2H)-yl)propan-1-one]	< 50
O=C(CCN1CC[C@H](O)C1)N1CCN(c2ccc(F)cc2)c2cc(F)ccc21 [Compound 44, (S)-1-(6-fluoro-4-(4-fluorophenyl)-3,4-dihydroquinoxaline-1(2H)-yl)-3-(3-hydroxypyrrolidin-1-yl)propan-1-one]	≥ 70
O=C(CCc1cnc[nH]1)N1CCN(c2ccc(F)cc2)c2cc(F)ccc21 [Compound 46, 1-(6-fluoro-4-(4-fluorophenyl)-3,4-dihydroquinoxaline-1(2H)-yl)-3-(1H-imidazol-5-yl)propan-1-one]	≥ 70
N[C@@H](Cc1c[nH]cn1)C(=O)N1CCN(c2ccc(F)cc2)c2cc(F)ccc21 [Compound 47, (S)-2-amino-1-(6-fluoro-4-(4-fluorophenyl)-3,4-dihydroquinoxaline-1(2H)-yl)-3-(1H-imidazol-4-yl)propan-1-one]	50 to 70
N[C@H](Cc1c[nH]cn1)C(=O)N1CCN(c2ccc(F)cc2)c2cc(F)ccc21 [Compound 48, (R)-2-amino-1-(6-fluoro-4-(4-fluorophenyl)-3,4-dihydroquinoxaline-1(2H)-yl)-3-(1H-imidazol-4-yl)propan-1-one]	< 50
CC(C(=O)N1CCN(c2ccc(F)cc2)c2cc(F)ccc21)N1CCCC[C@H]1C (stereo partly drawn) [Compound 49, 1-(6-fluoro-4-(4-fluorophenyl)-3,4-dihydroquinoxaline-1(2H)-yl)-2-((R)-2-methylpiperidin-1-yl)propan-1-one]	< 50
